CC(C)c1nc(N(C)S(C)(=O)=O)nc(-c2ccc(F)cc2)c1/C=C/[C@@H](O)C[C@@H](O)CC(=O)[O-].CC(C)c1nc(N(C)S(C)(=O)=O)nc(-c2ccc(F)cc2)c1/C=C/[C@@H](O)C[C@@H](O)CC(=O)[O-].[Ca+2]
solubility (mole fraction)
Settings | in ethanol | in ethylene glycol | in isopropanol | in n-butanol | in propylene glycol | in sec-butanol | in water
298.15 K | 0.000337 | 0.000255 | 0.000304 | 0.000429 | 0.0156 | 7.17e-05 | 5.4e-06
303.15 K | 0.000392 | 0.000311 | 0.000366 | 0.000511 | 0.0164 | 8e-05 | 7.02e-06
308.15 K | 0.000469 | 0.000374 | 0.000432 | 0.000614 | 0.0173 | 8.96e-05 | 9e-06
313.15 K | 0.00057 | 0.00044 | 0.000499 | 0.00071 | 0.0181 | 9.92e-05 | 1.13e-05
318.15 K | 0.000681 | 0.000503 | 0.000566 | 0.00082 | 0.0189 | 0.000108 | 1.4e-05

Reference: BigSolDB 2.1
